According to patent US7151116B2, “Apoptolidin analogs and derivatives for inducing apoptosis in transformed cells” (Board of Trustees of The Leland Stanford Junior University, priority 2003, dated 2006):
Like-named read-outs stand apart in the source and are kept apart here.

Legend:
[1] = Apoptolidin-isoapoptolidin equilibrium kinetics in PBS at 37° C. (reverse-phase HPLC); type: physicochemical; details: solution starting from the labelled isomer (Q(t) = 0 at t = 0: apoptolidin, Q(t) = ∞ at t = 0: isoapoptolidin); for k1: apoptolidin to isoapoptolidin; for k−1: isoapoptolidin to apoptolidin
Method: (§1) To measure the kinetic parameters of apoptolidin and isoapoptolidin, solutions of both compounds in PBS (Dulbecco's phosphate buffered saline) were prepared and incubated at 37° C. in sealed reaction vessels. Periodically, the components present in the solutions were quantified using reverse-phase HPLC. Baseline separation was achieved using a 150×4.6 mm C18/5μ column eluting with a water/acetonitrile gradient from 40% to 90% over 30 min. After normalization for the difference in extinction coefficients (λobs=254 nm), these values were plotted and the rate constants k1 and k−1 were extracted by fitting the data to the integrated rate expression for a simple equilibrium. The kinetic parameters for apoptolidin and isoapoptolidin equilibrium over time in PBS at 37° C. The relative amounts of apoptolidin and isoapoptolidin at various time points are plotted in FIG. 2.

[2] = test system: untransformed rat glial cells; details: Seto et al., 1997; cited from earlier work
[3] = test system: 60 human cancer cell lines (NCI 60); details: of 37,000 compounds tested by the National Cancer Institute; cited from earlier work
[4] = Stability of solutions on storage (NMR, HPLC, UV-vis); type: physicochemical; details: for conversion in dilute aqueous solution: ambient temperature, HPLC or UV-vis
Excerpt: To study the kinetic parameters of isoapoptolidin, the conversion between apoptolidin and isoapoptolidin under biological assay and chemical isolation conditions was observed. […] During this time, no conversion to isoapoptolidin is observed, either by NMR or HPLC. […] Given that the conversion between apoptolidin and isoapoptolidin goes in both directions, it is likely that these two compounds are in equilibrium.

[5] = test system: rat glial cells transformed with the adenovirus E1A or E1A/E1B19K/E1B54K oncogenes; details: Seto et al., 1997; cited from earlier work
[6] = target: T1, mitochondrial F0F1-ATPase (Saccharomyces cerevisiae, UniProt P00830+P07251+P38077); test: F0F1-ATPase inhibition assay in isolated yeast mitochondria (20 minute cell-free assay); type: biochemical; details: for F0F1-ATPase inhibitory activity (in words): comparison
T1 construct: endogenous in cells; host or cells: isolated yeast mitochondria (cell-free preparation)
Method: The ability of isoapoptolidin and the apoptolidin derivatives described in Examples 3 and 4 to inhibit F0F1-ATPase in isolated yeast mitochondria was studied. The F0F1-ATPase assay is a rapid 20 minute cell-free assay.
The functionalized macrolide and δ-lactone fragments were assayed for inhibitory activity against mitochondrial F0F1-ATPase.

normal fibroblasts = details: Seto et al., 1997; cited from earlier work
[7] = Stability in the presence of all F0F1-ATPase assay components; type: physicochemical; details: up to 24 hours
Method: To test the ability of isoapoptolidin to inhibit F0F1-ATPase activity, solutions of isoapoptolidin and apoptolidin including all assay components were analyzed for isomerization. After 20 minutes at 37° C., less than 12% conversion was detected.
To test the ability of apoptolidin derivatives to inhibit F0F1-ATPase activity, compound 16 from Table 3 was exposed to all of the assay components for up to 24 hours.

Stability in PBS (LC-MS) = type: physicochemical; details: conditions that promote apoptolidin/isoapoptolidin isomerization
Method: as §1
This experiment leads to the conclusion that while derivatization of apoptolidin at C-20 blocks isomerization to isoapoptolidin, the resulting derivatives (compounds 18 and 20) undergo other transformations.

[8] = Isomerization in basic CD3OD (LCMS and NMR); type: physicochemical
Excerpt: To prevent ring expansion, the primary alcohol may be efficiently converted to a methyl ether or benzoate ester by way of treatment with Meerwein's salt or benzoyl anhydride followed by deprotection, under this procedure, the following macrocycles resulted, respectively: Compound 23: Q^1=Q^2=Q^3=Q^4=Q^5=Q^7=H; Q^6=R^1=R^2=R^3=R^4=CH3 Compound 24: Q^1=Q^2=Q^3=Q^4=Q^5=Q^7=H; Q^6=[…]; R^1=R^2=R^3=R^4=CH3

COC[C@@H](C[C@H]1O[C@@](O)([C@H](O)[C@@H]2C[C@H](OC)[C@@H](O)CC/C=C(C)/C=C/[C@@H](O[C@@H]3O[C@@H](C)[C@H](OC)[C@@H](O)[C@@H]3O)[C@H](C)/C=C(C)/C=C(C)/C=C(\C)C(=O)O2)[C@H](C)[C@@H](O)[C@H]1C)O[C@H]1C[C@](C)(O)[C@@H](O[C@H]2C[C@@H](OC)[C@H](O)[C@@H](C)O2)[C@H](C)O1 [Apoptolidin]
Keq [1]: 0.0616
k1 [1]: 0.0656 h⁻¹
k−1 [1]: 0.106 h⁻¹
cytotoxic effect [2]: no cytotoxic effect
rank of selectivity among cytotoxic agents [3]: among the top 0.1% most selective cytotoxic agents
conversion in dilute aqueous solution [4]: convert to isoapoptolidin
stable in solution (no conversion to isoapoptolidin by NMR or HPLC) ([4]; −20° C., dissolved in chloroform or methylene chloride): up to three months
induction of apoptosis [5]: capable of inducing apoptosis
IC50 [6]: 700 ± 500 nM
cytotoxic effect (normal fibroblasts): no cytotoxic effect

COC[C@@H](C[C@H]1O[C@@](OC)([C@H](O)[C@@H]2C[C@H](OC)[C@@H](O)CC/C=C(C)/C=C/[C@@H](O[C@@H]3O[C@@H](C)[C@H](OC)[C@@H](O)[C@@H]3O)[C@H](C)/C=C(C)/C=C(C)/C=C(\C)C(=O)O2)[C@H](C)[C@@H](O)[C@H]1C)O[C@H]1C[C@](C)(O)[C@@H](O[C@H]2C[C@@H](OC)[C@H](O)[C@@H](C)O2)[C@H](C)O1 [Compound 1]
IC50 [6]: 2300 ± 500 nM

COC[C@@H](C[C@H]1O[C@@](O)([C@H](O)[C@@H]2C[C@H](OC)[C@@H](O)CC/C=C(C)/C=C/[C@@H](O[C@@H]3O[C@@H](C)[C@H](OC)[C@@H](O)[C@@H]3OC(=O)c3ccccc3)[C@H](C)/C=C(C)/C=C(C)/C=C(\C)C(=O)O2)[C@H](C)[C@@H](O)[C@H]1C)O[C@H]1C[C@](C)(O)[C@@H](O[C@H]2C[C@@H](OC)[C@H](O)[C@@H](C)O2)[C@H](C)O1 [Compound 3]
IC50 [6]: 300 ± 500 nM

COC[C@@H](C[C@H]1O[C@@](O)([C@H](O)[C@@H]2C[C@H](OC)[C@@H](O)CC/C=C(C)/C=C/[C@@H](O[C@@H]3O[C@@H](C)[C@H](OC)[C@@H](O)[C@@H]3O)[C@H](C)/C=C(C)/C=C(C)/C=C(\C)C(=O)O2)[C@H](C)[C@@H](OC(C)=O)[C@H]1C)O[C@H]1C[C@](C)(O)[C@@H](O[C@H]2C[C@@H](OC)[C@H](OC(C)=O)[C@@H](C)O2)[C@H](C)O1 [Compound 14]
IC50 [6]: 400 ± 500 nM

COC[C@@H](C[C@H]1O[C@@](O)([C@H](O)[C@@H]2C[C@H](OC)[C@@H](O)CC/C=C(C)/C=C/[C@@H](O[C@@H]3O[C@@H](C)[C@H](OC)[C@@H](O)[C@@H]3O)[C@H](C)/C=C(C)/C=C(C)/C=C(\C)C(=O)O2)[C@H](C)[C@@H](O)[C@H]1C)O[C@H]1C[C@](C)(O)[C@@H](O[C@H]2C[C@@H](OC)[C@H](OC(C)=O)[C@@H](C)O2)[C@H](C)O1 [Compound 15]
IC50 [6]: 800 ± 500 nM

COC[C@@H](C[C@H]1O[C@@](O)([C@H](O)[C@@H]2C[C@H](OC)[C@@H](OC(C)=O)CC/C=C(C)/C=C/[C@@H](O[C@@H]3O[C@@H](C)[C@H](OC)[C@@H](O)[C@@H]3O)[C@H](C)/C=C(C)/C=C(C)/C=C(\C)C(=O)O2)[C@H](C)[C@@H](O)[C@H]1C)O[C@H]1C[C@](C)(O)[C@@H](O[C@H]2C[C@@H](OC)[C@H](O)[C@@H](C)O2)[C@H](C)O1 [Compound 16]
hydrolysis (ESIMS) [7]: no hydrolysis was detected
IC50 [6]: 800 ± 500 nM

COC[C@@H](C[C@H]1O[C@@](O)([C@H](O)[C@@H]2C[C@H](OC)[C@@H](O)CC/C=C(C)/C=C/[C@@H](O[C@@H]3O[C@@H](C)[C@H](OC)[C@@H](OC(C)=O)[C@@H]3O)[C@H](C)/C=C(C)/C=C(C)/C=C(\C)C(=O)O2)[C@H](C)[C@@H](O)[C@H]1C)O[C@H]1C[C@](C)(O)[C@@H](O[C@H]2C[C@@H](OC)[C@H](O)[C@@H](C)O2)[C@H](C)O1 [Compound 17]
IC50 [6]: 400 ± 500 nM

COC[C@@H](C[C@H]1O[C@@](O)([C@H](OC(C)=O)[C@@H]2C[C@H](OC)[C@@H](O)CC/C=C(C)/C=C/[C@@H](O[C@@H]3O[C@@H](C)[C@H](OC)[C@@H](O)[C@@H]3O)[C@H](C)/C=C(C)/C=C(C)/C=C(\C)C(=O)O2)[C@H](C)[C@@H](O)[C@H]1C)O[C@H]1C[C@](C)(O)[C@@H](O[C@H]2C[C@@H](OC)[C@H](O)[C@@H](C)O2)[C@H](C)O1 [Compound 18]
stability in PBS (Stability in PBS (LC-MS)): unstable under these conditions, producing several new compounds over a five hour period
IC50 [6]: 1100 ± 500 nM

COC[C@@H](C[C@H]1O[C@@](O)([C@H](OC)[C@@H]2C[C@H](OC)[C@@H](O)CC/C=C(C)/C=C/[C@@H](O[C@@H]3O[C@@H](C)[C@H](OC)[C@@H](O)[C@@H]3O)[C@H](C)/C=C(C)/C=C(C)/C=C(\C)C(=O)O2)[C@H](C)[C@@H](O)[C@H]1C)O[C@H]1C[C@](C)(O)[C@@H](O[C@H]2C[C@@H](OC)[C@H](O)[C@@H](C)O2)[C@H](C)O1 [Compound 20]
stability in PBS (Stability in PBS (LC-MS)): partially convert to a second isomeric compound over a period of several hours
IC50 [6]: 2800 ± 500 nM

CO[C@@H]1[C@@H](O)[C@H](O)[C@H](O[C@@H]2/C=C/C(C)=C/CC[C@H](O)[C@@H](OC)C[C@@H](CO)OC(=O)/C(C)=C/C(C)=C/C(C)=C/[C@H]2C)O[C@H]1C [Compound 22]
isomerization to ring expanded isomer [8]: slowly isomerized to its ring expanded isomer
IC50 ([6]; Table 6, apoptolidin oxidative cleavage products, mitochondrial F0F1-ATPase, read-out: IC50): 16000 ± 5000 nM
F0F1-ATPase inhibitory activity (in words) [6]: potency comparable to isoapoptolidin

COC[C@@H](C[C@H]1O[C@@](O)([C@@H]2OC(=O)/C(C)=C/C(C)=C/C(C)=C/[C@@H](C)[C@H](O[C@@H]3O[C@@H](C)[C@H](OC)[C@@H](O)[C@@H]3O)/C=C/C(C)=C/CC[C@H](O)[C@@H](OC)C[C@@H]2O)[C@H](C)[C@@H](O)[C@H]1C)O[C@H]1C[C@](C)(O)[C@@H](O[C@H]2C[C@@H](OC)[C@H](O)[C@@H](C)O2)[C@H](C)O1 [Isoapoptolidin]
Keq [1]: 0.638
k1 [1]: 0.0626 h⁻¹
k−1 [1]: 0.0982 h⁻¹
conversion in dilute aqueous solution [4]: convert to apoptolidin
stable as a solution ([4]; −20° C., methanol): up to six months
IC50 [6]: 17000 ± 5000 nM
F0F1-ATPase inhibitory activity (in words) [6]: reduced F0F1-ATPase inhibitory activity over apoptolidin
